Here are results for 7 compounds from patent US6713280B1, “Enhancement of peptide cellular uptake” (Thomas Jefferson University, priority 1999, dated 2004).

For experiment [1], the system named is HL-60 cells transfected with Bcl-2 to overexpress Bcl-2. Description: DNA fragmentation apoptosis assay. The experiment is classed as cell-based, human. The conditions noted are these: 50 μM, 2 hours, Bcl-2-transfected HL-60 cells, FIG. 6.
The next experiment addresses Bcl-2 protein (Homo sapiens, UniProt P10415). In words: Fluorescence polarization competition binding against Flu-SEQ ID NO:30 (BH3 peptides). The note with it: FIG. 3; for relative competition to Flu-SEQ ID NO:30 binding: comparison among BH3 peptides; for inhibition of Bcl-2 binding of Flu-SEQ ID NO:30: competition curve. For orientation: In fluorescence polarisation assays a small probe gives low polarisation when free and higher when bound to something large.

In another experiment the target is GST-Bcl-2 protein (Homo sapiens, UniProt P10415). In words: Fluorescence polarization competition binding assay of decyl-SEQ ID NO:56 to GST-Bcl-2. As to the method: The binding equation proposed by Weinhold et al., J. Am. Chem. Soc. 114:9270-9275, 1992, was used to derive the dissociation constant KD of an inhibitor from petition inhibition curve, [formula]
The Ec50 for the Bcl-2 binding of decyl-SEQ ID NO:56 was 0.13 μM, indicating strong binding.
The binding of the peptide conjugate decyl-SEQ ID NO:56 to the Bcl-2 protein was assayed by the following competition assay. […] The following micromolar concentrations of decyl-K1285 were then incubated with the mixture for 30 minutes at 37° C. (0.005, 0.01, 0.02, 0.04 0.08 0.16 and 0.32).

The test system of experiment [2] is HL-60 cell line (parent line). The note with it: 50 μM, parent HL-60 line; cited from earlier work.
Experiment [3] has as its system Bcl-2-transfected HL-60 line. The conditions noted are these: 50 μM (same concentration); cited from earlier work.

pEC50: −log10 of the molar value. Residues, ends and D or L forms follow the SMILES beside them. *: point of attachment. Decanoyl = CCCCCCCCCC(=O)*

Bcl-2 protein, sequence (P10415 whole entry): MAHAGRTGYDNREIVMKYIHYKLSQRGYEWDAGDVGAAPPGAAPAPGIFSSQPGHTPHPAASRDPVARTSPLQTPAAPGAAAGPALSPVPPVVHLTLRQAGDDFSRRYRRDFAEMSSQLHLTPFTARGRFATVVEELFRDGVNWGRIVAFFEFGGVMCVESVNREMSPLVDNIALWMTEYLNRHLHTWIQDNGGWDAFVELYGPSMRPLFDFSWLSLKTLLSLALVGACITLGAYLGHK
GST-Bcl-2 protein, sequence (P10415 1-205 limits assumed): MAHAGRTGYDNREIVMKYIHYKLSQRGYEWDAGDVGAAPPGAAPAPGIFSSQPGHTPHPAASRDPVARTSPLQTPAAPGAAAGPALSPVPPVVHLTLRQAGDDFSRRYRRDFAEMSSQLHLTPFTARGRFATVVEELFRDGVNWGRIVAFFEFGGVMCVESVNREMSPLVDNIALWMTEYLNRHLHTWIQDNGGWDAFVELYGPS

Turning to `CCCCCCCCCC(=O)O` [decanoic acid, reference compound], the “DNA fragmentation (marker of apoptosis)” value in experiment [1] is “observed in the decyl-SEQ ID NO:56-treated cells only”.

Consider “NLWAAQRYGRELRRMSDEFEGSFKGL [SEQ ID NO:1]”, for which, in the experiment with Bcl-2 protein, the “relative competition to Flu-SEQ ID NO:30 binding” value is “strongest competition” and the “inhibition of Bcl-2 binding of Flu-SEQ ID NO:30” value (shortened to “inhibition … of Flu-SEQ ID NO:30”) is “clear dose-dependent inhibition”.

As for KKLSECLKRIGDELDS [SEQ ID NO:32], on Bcl-2 protein, the “relative competition to Flu-SEQ ID NO:30 binding” value was “weaker activity” and the “inhibition … of Flu-SEQ ID NO:30” value is listed as “clear dose-dependent inhibition”.

As to “GQVGRQMIIGDDINR (GQVGRQAAIIGDDINR) [SEQ ID NO:58, reference compound]”, the “inhibition … of Flu-SEQ ID NO:30” value with Bcl-2 protein is on record as “no significant effect”.

Consider `CCCCCCCCCC(=O)N[C@@H](CCCCN)C(=O)N[C@@H](CC(N)=O)C(=O)N[C@@H](CC(C)C)C(=O)N[C@@H](Cc1c[nH]c2ccccc12)C(=O)N[C@@H](C)C(=O)N[C@@H](C)C(=O)N[C@@H](CCC(N)=O)C(=O)N[C@@H](CCCNC(=N)N)C(=O)N[C@@H](Cc1ccc(O)cc1)C(=O)NCC(=O)N[C@@H](CCCNC(=N)N)C(=O)N[C@@H](CCC(=O)O)C(=O)N[C@@H](CC(C)C)C(=O)N[C@@H](CCCNC(=N)N)C(=O)N[C@@H](CCCNC(=N)N)C(=O)N[C@@H](CCSC)C(=O)N[C@@H](CO)C(=O)N[C@@H](CC(=O)O)C(=O)N[C@@H](CCC(=O)O)C(=O)N[C@@H](Cc1ccccc1)C(=O)N[C@@H](CCC(=O)O)C(=O)NCC(=O)N[C@@H](CO)C(=O)N[C@@H](Cc1ccccc1)C(=O)N[C@@H](CCCCN)C(=O)NCC(=O)N[C@@H](CC(C)C)C(=O)O` [decyl-SEQ ID NO:56] (Decanoyl-KNLWAAQRYGRELRRMSDEFEGSFKGL-OH; C-terminus assumed), for which, at GST-Bcl-2 protein, the pEC50 (usually the negative decadic logarithm of the EC50, by convention in mol/L) is 6.89. Moreover, in experiment [1], the “DNA fragmentation (marker of apoptosis)” value is listed as “DNA fragmentation was observed”.

With `COc1cc([C@@H]2c3cc4c(cc3[C@@H](O[C@@H]3O[C@@H]5CO[C@@H](C)O[C@H]5[C@H](O)[C@H]3O)[C@H]3COC(=O)[C@H]23)OCO4)cc(OC)c1O` [etoposide], the “sensitivity of cells to the drug” value was “sensitive” in experiment [2] and “resistant” in experiment [3].

“KNLWAAQRYGRELRRMSDEFEGSFKGL [SEQ ID NO:56]”: the “DNA fragmentation (marker of apoptosis)” value in experiment [1] is on record as “observed in the decyl-SEQ ID NO:56-treated cells only”.
